In patent US8609672B2, “Piperazinylpyrimidine analogues as protein kinase inhibitors” (University of the Pacific, priority 2010, dated 2013):

What was measured:
[1] = test system: SK-MEL-28; assay: NCI-60 SRB growth inhibition: SK-MEL-28; format: cell-based, human; settings: SK-MEL-28, Melanoma, 48 hours treatment; for CC50: Homo sapiens, read-out: LC50 (the source's name)
[2] = test system: NCI-H226; assay: NCI-60 SRB growth inhibition: NCI-H226; format: cell-based, human; settings: NCI-H226, Non-small cell lung cancer; 48 hours treatment
[3] = test system: SNB-75; assay: NCI-60 SRB growth inhibition: SNB-75; format: cell-based, human; settings: SNB-75, CNS cancer, 48 hours treatment; for CC50: Homo sapiens, read-out: LC50 (the source's name)
[4] = test system: OVCAR-8; assay: NCI-60 SRB growth inhibition: OVCAR-8; format: cell-based, human; settings: OVCAR-8, Ovarian cancer, 48 hours treatment; for CC50: Homo sapiens, read-out: LC50 (the source's name)
[5] = test system: MALME-3M; assay: NCI-60 SRB growth inhibition: MALME-3M; format: cell-based, human; settings: Melanoma, 48 hours treatment
[6] = test system: BT-549; assay: NCI-60 SRB growth inhibition: BT-549; format: cell-based, human; settings: for TGI: BT-549, Breast cancer, 48 hours treatment; for CC50: Homo sapiens, BT-549, 48 h, read-out: LC50 (the source's name)
[7] = test system: SK-MEL-2; assay: NCI-60 SRB growth inhibition: SK-MEL-2; format: cell-based, human; settings: SK-MEL-2, Melanoma; 48 hours treatment
[8] = test system: NCI-H23; assay: NCI-60 SRB growth inhibition: NCI-H23; format: cell-based, human; settings: NCI-H23, Non-small cell lung cancer; 48 hours treatment
[9] = test system: M0LT-4; assay: NCI-60 SRB growth inhibition: M0LT-4; format: cell-based, human; settings: M0LT-4, Leukemia; 48 hours treatment
[10] = test system: COLO 205; assay: NCI-60 SRB growth inhibition: COLO 205; format: cell-based, human; settings: COLO 205, Colon cancer, 48 hours treatment; for CC50: Homo sapiens, read-out: LC50 (the source's name)
[11] = biological target: T1, CSNK1D (Homo sapiens, UniProt P48730); assay: Kinase binding screening: CSNK1D; settings: 10 μM compound, read-out: B-POC (binding percentage of control)
T1 construct: purchased Ambit Bioscience (assay service)
T1 sequence (P48730 whole entry): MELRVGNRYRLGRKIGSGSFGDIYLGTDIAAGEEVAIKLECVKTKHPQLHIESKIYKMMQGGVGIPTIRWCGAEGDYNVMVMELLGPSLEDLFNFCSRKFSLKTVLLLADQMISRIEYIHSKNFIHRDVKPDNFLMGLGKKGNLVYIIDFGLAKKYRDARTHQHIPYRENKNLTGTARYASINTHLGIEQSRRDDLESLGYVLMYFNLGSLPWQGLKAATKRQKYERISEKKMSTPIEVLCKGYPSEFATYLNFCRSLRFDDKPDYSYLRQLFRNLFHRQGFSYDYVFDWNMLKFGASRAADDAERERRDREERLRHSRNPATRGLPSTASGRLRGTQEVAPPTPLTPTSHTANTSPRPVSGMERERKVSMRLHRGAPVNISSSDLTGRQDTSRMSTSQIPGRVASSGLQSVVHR
Method: Biotinylated kinase ligand was immobilized onto streptavidin coated magnetic beads and washed with blocking buffer. The liganded beads were then incubated with DNA-tagged kinase in the presence of test compound for 1 h at room temperature. Binding reactions were carried out in 20% Seablock, 0.17×PBS, 0.005% Tween 20, 6 mM DTT, in a final volume of 0.04 mL. Beads were then washed with wash buffer (PBS, 0.05% Tween 20), and then incubated with elution buffer (PBS, 0.05% Tween […] non-biotinylated kinase ligand) and eluted. The kinase concentration in the eluate was then measured by quantitative PCR. […] The results of this single dose screening are reported in the form of binding percentage of control (B-POC) which is defined as follows:
[formula] The negative control signal is obtained by the vehicle and corresponds to B-POC=100%. The positive signal control is detected by a binding positive compound and is B-POC 0%. The B-POC results are the average of duplicate measurements. Only interactions with […] were considered significant and thus used for calculating the selectivity scores (Table 1) of the test compounds as follows:
[formula] […] The Kd is then calculated according to the following equation:
[formula] hill slope=−1. A non-linear least square fit with the Levenberg-Marquardt algorithm was implemented to fit the curves (FIG. 3). Kinase binding assays were performed by Ambit Bioscience (San Diego, Calif., USA).
The results of kinase binding assay are shown in Table 1, which includes the B-POC values of 10 μM of compounds 4, 15, and 16 against the most sensitive kinases tested within this binding experiment. […] Kinases within the same subfamily are highlighted. […] Both the B-POC and Kd values are the average of duplicate measurements.
J. et al. Bioorganic and Medicinal Chemistry Letters 2009, 19, 1206-1209; Chao, Q. et al. Journal of Medicinal Chemistry 2009, 52, 7808-7816.). A single dose of 10 μM was chosen to allow for detecting kinases able to bind to the test compounds. In this binding assay, a set of 243 kinases were included. […]

[12] = test system: PC-3; assay: NCI-60 SRB growth inhibition: PC-3; format: cell-based, human; settings: PC-3, Prostate cancer; 48 hours treatment
[13] = test system: DU-145; assay: NCI-60 SRB growth inhibition: DU-145; format: cell-based, human; settings: for TGI: DU-145, Prostate cancer, 48 hours treatment; for CC50: Homo sapiens, DU-145, 48 h, read-out: LC50 (the source's name)
[14] = test system: UACC-257; assay: NCI-60 SRB growth inhibition: UACC-257; format: cell-based, human; settings: for CC50: Homo sapiens, UACC-257, 48 h, read-out: LC50 (the source's name); for TGI: UACC-257, Melanoma, 48 hours treatment
[15] = test system: SN12C; assay: NCI-60 SRB growth inhibition: SN12C; format: cell-based, human; settings: Renal cancer, 48 hours treatment; for CC50: Homo sapiens, read-out: LC50 (the source's name)
[16] = test system: RXF 393; assay: NCI-60 SRB growth inhibition: RXF 393; format: cell-based, human; settings: RXF 393, Renal cancer, 48 hours treatment; for CC50: Homo sapiens, read-out: LC50 (the source's name)
[17] = test system: NCI-H460; assay: NCI-60 SRB growth inhibition: NCI-H460; format: cell-based, human; settings: NCI-H460, Non-small cell lung cancer, 48 hours treatment; for CC50: Homo sapiens, read-out: LC50 (the source's name)
[18] = test system: LOX 1MVI; assay: NCI-60 SRB growth inhibition: LOX 1MVI; format: cell-based, human; settings: Melanoma, 48 hours treatment
[19] = test system: 786-0; assay: NCI-60 SRB growth inhibition: 786-0; format: cell-based, human; settings: 786-0, Renal cancer; 48 hours treatment

Structure (SMILES): c1ccc(Cc2cnc(N3CCN(c4ncnc5ccccc45)CC3)nc2)cc1 [Compound 4, 4-(4-(5-benzylpyrimidin-2-yl)piperazin-1-yl)quinazoline]
- CC50 [1]: > 100 µM
- TGI [1]: 99.30 µM
- TGI [2]: 48.40 µM
- CC50 [3]: > 100 µM
- TGI [3]: 78.20 µM
- CC50 [4]: 71.3 µM
- TGI [4]: 25.60 µM
- TGI [5]: 33.60 µM
- TGI [6]: 18.40 µM
- CC50 [6]: 43 µM
- TGI [7]: 35.80 µM
- TGI [8]: 30.80 µM
- TGI [9]: 40.60 µM
- TGI [10]: >100 µM
- CC50 [10]: > 100 µM
- remaining activity at 10 µM [11]: 26%
- TGI [12]: >100 µM
- TGI [13]: 30.70 µM
- CC50 [13]: 79.8 µM
- CC50 [14]: 41.4 µM
- TGI [14]: 16.80 µM
- CC50 [15]: 54.8 µM
- TGI [15]: 24.40 µM
- CC50 [16]: > 100 µM
- TGI [16]: 57.90 µM
- CC50 [17]: 55 µM
- TGI [17]: 23.70 µM
- TGI [18]: 19.60 µM
- TGI [19]: 36.70 µM

Structure (SMILES): O=C(c1cccc(Nc2ncnc3ccccc23)c1)N1CCN(c2ncc(Cc3ccccc3)cn2)CC1 [Compound 16, (4-(5-benzylpyrimidin-2-yl)piperazin-1-yl)(3-(quinazolin-4-ylamino)phenyl)methanone]
- CC50 [1]: 5.25 µM
- TGI [1]: 2.82 µM
- TGI [2]: 2.09 µM
- CC50 [3]: > 100 µM
- TGI [3]: 5.89 µM
- CC50 [4]: > 100 µM
- TGI [4]: 3.31 µM
- TGI [5]: 2.57 µM
- TGI [6]: 1.74 µM
- CC50 [6]: 5.37 µM
- TGI [7]: 2.69 µM
- TGI [8]: 2.69 µM
- TGI [9]: 1.34 µM
- TGI [10]: 2.75 µM
- CC50 [10]: 5.5 µM
- remaining activity at 10 µM [11]: 22%
- TGI [12]: 2.88 µM
- TGI [13]: 6.46 µM
- CC50 [13]: > 100 µM
- CC50 [14]: 5.37 µM
- TGI [14]: 2.63 µM
- CC50 [15]: > 100 µM
- TGI [15]: 7.08 µM
- CC50 [16]: > 100 µM
- TGI [16]: 11.48 µM
- CC50 [17]: > 100 µM
- TGI [17]: 4.27 µM
- TGI [18]: 2.45 µM
- TGI [19]: 6.61 µM

Structure (SMILES): CCc1cnc(N2CCN(C(=O)c3ccc(CNc4ncnc5ccccc45)cc3)CC2)nc1 [Compound 15, (4-(5-ethylpyrimidin-2-yl)piperazin-1-yl)(4-((quinazolin-4-ylamino)methyl)phenyl)methanone]
- CC50 [1]: > 100 µM
- TGI [1]: >100 µM
- TGI [2]: >100 µM
- CC50 [3]: > 100 µM
- TGI [3]: 58.20 µM
- CC50 [4]: > 100 µM
- TGI [4]: >100 µM
- TGI [5]: 42.20 µM
- TGI [6]: 10.70 µM
- CC50 [6]: > 100 µM
- TGI [7]: >100 µM
- TGI [8]: 33.30 µM
- TGI [9]: 27.60 µM
- TGI [10]: 38.20 µM
- CC50 [10]: > 100 µM
- remaining activity at 10 µM [11]: 23%
- TGI [12]: >100 µM
- TGI [13]: >100 µM
- CC50 [13]: > 100 µM
- CC50 [14]: > 100 µM
- TGI [14]: 26.80 µM
- CC50 [15]: > 100 µM
- TGI [15]: 59.00 µM
- CC50 [16]: > 100 µM
- TGI [16]: 41.60 µM
- CC50 [17]: > 100 µM
- TGI [17]: 30.70 µM
- TGI [18]: 28.70 µM
- TGI [19]: 54.80 µM
